For three compounds, EC50 results are on record in paper PMC6511041 (Proceedings of the National Academy of Sciences of the …, 2019).

The target in assay [1] is T1, OR5P3 (Homo sapiens, UniProt Q8WZ94).
T1 sequence (Q8WZ94 1-311): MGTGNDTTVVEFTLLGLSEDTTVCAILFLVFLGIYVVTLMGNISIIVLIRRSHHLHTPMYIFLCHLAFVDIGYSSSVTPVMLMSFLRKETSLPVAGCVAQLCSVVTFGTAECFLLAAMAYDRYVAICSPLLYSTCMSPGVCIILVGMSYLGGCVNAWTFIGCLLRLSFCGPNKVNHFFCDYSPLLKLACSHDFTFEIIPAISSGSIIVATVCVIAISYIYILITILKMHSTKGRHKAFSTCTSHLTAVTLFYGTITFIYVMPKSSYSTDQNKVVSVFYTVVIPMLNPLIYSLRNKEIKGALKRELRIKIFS
The assay is described as follows: Dual-Glo firefly/Renilla luciferase reporter, dose-response. The assay is classed as cell-based. Particulars: odorant up to 0.3 mM; competitive-binding model fit, single odorant.

In assay [2] the target is T2, Olfr1062 (Mus musculus, UniProt Q7TR71).
T2 sequence (Q7TR71 1-315): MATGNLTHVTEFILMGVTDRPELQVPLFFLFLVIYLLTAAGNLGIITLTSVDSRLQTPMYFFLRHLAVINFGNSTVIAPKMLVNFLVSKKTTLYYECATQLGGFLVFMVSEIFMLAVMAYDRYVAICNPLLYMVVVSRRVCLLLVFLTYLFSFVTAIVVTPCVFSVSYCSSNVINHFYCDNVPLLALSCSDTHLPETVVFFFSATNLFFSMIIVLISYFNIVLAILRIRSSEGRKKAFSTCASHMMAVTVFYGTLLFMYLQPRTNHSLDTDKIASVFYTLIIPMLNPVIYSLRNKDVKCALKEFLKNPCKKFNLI
Described as above. The assay is classed as cell-based. Particulars: odorant up to 0.3 mM; competitive-binding model fit, single odorant.

As to `CC(=O)c1ccccc1` [acetophenone], the EC50 entry was “OR5P3, synergy between coumarin and acetophenone” in assay [1]; “Olfr1062, synergy between all three pairs” in assay [2]. As for `O=c1ccc2ccccc2o1` [coumarin], the EC50 entry in assay [1] is “OR5P3, synergy between coumarin and acetophenone”; in assay [2], “Olfr1062, synergy between all three pairs”. Take `C=CCc1ccc(O)c(OC)c1` [eugenol]: the EC50 result in assay [2] is “Olfr1062, synergy between all three pairs”.
